Measurements: US20220202912A1, “Polypeptides in Preparation of Drugs for Treatment or Prevention of Rheumatoid Arthritis” (priority 2011, published 2022)
Where no end group is shown, it is not given here.

Columns and labels:
IL-1β = IL-1β production by mouse peritoneal macrophages (LPS, ELISA); format: cell-based, C57BL/6 mice; conditions: LPS 5 μg/mL, 48 h
Procedure: In the test, mice are divided into […], namely a blank control group, a lipopolysaccharide (LPS) model group, a dexamethasone group, and mPEG-SC20k-HM-3 groups at different doses (0.56, 1.12, 2.25, 4.50, 9.00 μmol/L).
(1) IL-1 production: mice are intraperitoneally injected with 1 mL of broth medium (containing 6% of starch). After three days, mouse peritoneal macrophages are taken aseptically and washed twice with RPMI 1640 medium, and the cell concentration is adjusted to 2×10^6 cells/mL. The cells are injected into a 24-well culture plate, 1 mL per well, and the cells are incubated in a cell incubator for 3 h, and vibrated once every 30 min to make the cells fully adhere. Then the cells are washed twice with culture solution to remove non-adherent cells, are cultured continuously for 48 h after administration, and are centrifuged at 1000 r for 15 min. The supernatant is collected as a sample with IL-1β to be tested. (2) Determination of IL-1 content: various solutions are prepared; tested samples and standard substances with different concentrations (100 μL/well) are added into the corresponding wells, reaction wells are sealed with plate-sealing adhesive tape, and incubation is performed at 37° C. for 90 min; the plate is washed four times; biotinylated antibody working solution (100 μL/well) is added, the reaction wells are sealed with plate-sealing adhesive tape, and incubation is performed at 37° C. for 60 min; the plate is washed four times; enzyme conjugate working solution (100 μL/well) is added, the reaction wells are sealed with plate-sealing adhesive tape, and incubation is performed at 37° C. for 30 min; the plate is washed four times; chromogenic reagent (100 μL/well) is added, and incubation is performed at 37° C. for 10-20 min in the absence of light; stop solution (100 μL/well) is added, and the OD 450 nm absorbance is measured immediately after uniform mixing (within 5 min).

TLR-4 = test: Western blot of TLR-4 protein in LPS-induced rat synovial cells; format: cell-based
Procedure: 3.1 U937 cells are added to a 6-well plate (1.5×10^5 cells/mL), PMA (25 ng/mL) is used for induction for 48 h, and the cells adhere and differentiate into macrophages. Positive drug Adalimumab (25 μg/mL, 50 μg/mL, 100 μg/mL, 200 μg/mL, 400 μg/mL), Avastin (25 μg/mL, 50 μg/mL) are added, the final concentrations of mPEG-SC20k-HM-3 are 2.25, 4.5, 9.0, 13.5, 18.0, 36 μmol/L, and isovolumetric PBS is added to the blank group and the model group. The cells are incubated in a CO2 incubator at 37° C. for 24 or 48 h. Rat synovial cells are induced with LPS for 24 h and then mPEG-SC20k-HM-3 is administrated to final concentrations of 2.25, 4.5, 9.0, 13.5, 18.0 μmol/L, and the cells are incubated in a CO2 incubator at 37° C. for 48 h.
3.3 A protein extract solution is added at 20 μL/1×10^5 cells, and the cells are pipetted and dispersed, and stand at 4° C. for 30 min to lyse the cells.
3.4 1/4 volume of 5×protein loading buffer is added, and boiling water bath is performed for 5-10 min.
3.5 20 μL of protein sample is taken and 10% SDS-PAGE electrophoresis is performed.
3.6 The protein on the gel is transferred to the PVDF membrane by using a wetting transfer method with a constant current of 100 mA for 1-2.5 h.
3.7 The PVDF membrane is blocked with a blocking solution at room temperature for 2 h.
3.8 The membrane is washed for 3 times with PBST, 5 min each time. […]

Work on “mPEG-SC20k-Ile-Val-Arg-Arg-Ala-Asp-Arg-Ala-Ala-Val-Pro-Gly-Gly-Gly-Gly-Arg-Gly-Asp ({mPEG‑SC 20k}-IVRRADRAAVPGGGGRGD) [polypeptide III, No. 3]” yielded an IL-1β content (IL-1β; 0.56 μmoL/L) of 89.77 ± 7.22 pg/mL, an Inhibition rate (IL-1β; 0.56 μmoL/L) of 90.93% and an IL-1β content (IL-1β; 1.12 μmoL/L) of 35.17 ± 17.71 pg/mL. For the same substance, the Inhibition rate (IL-1β; 1.12 μmoL/L) was 96.45%, the IL-1β content (IL-1β; 2.25 μmoL/L) was 43.78 ± 10.16 pg/mL and the Inhibition rate (IL-1β; 2.25 μmoL/L) was 95.58%. It also gave an IL-1β content (IL-1β; 4.50 μmoL/L) of 32.04 ± 6.52 pg/mL, an Inhibition rate (IL-1β; 4.50 μmoL/L) of 96.76% and an IL-1β content (IL-1β; 9.00 μmoL/L) of 104.83 ± 2.44 pg/mL. For the same substance, the Inhibition rate (IL-1β; 9.00 μmoL/L) was 89.41%, the “dose with the best inhibitory effect on the expression of TLR-4 protein” value (TLR-4) was 13.5 µM and the “expression of TLR-4 protein in rat synovial cells” value (TLR-4; with the increase of dosage) was “down-regulation”.
